The conditions of data set [1]: rcm bond.
The conditions of data set [2]: from Boc-(2S)-2-aminonon-8-enoyl-Hyp-(vinylACCA)-OMe?; rcm bond; 15-membered ring; Hoveyda-Grubbs 1st gen; DCM; 9.85 mM; 40.0 °C.
The test system of a further data set is HCV genotype 1b replicon. The experiment in a line: HCV replicon assay, genotype 1b replicon EC50. Conditions: Hepatitis C virus, genotype 1b replicon; read-out: EC50 [gt-1b]. Type of data set: cell-based, Hepatitis C virus. Summed up: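 Cells harbouring a stable replicon are grown under G418 selection, then plated with test compound in G418-free medium for 24-48 hours. After washing and lysis, RNA or luciferase signal is measured and expressed as percent of DMSO control to give EC50.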

Data set [3] addresses HCV NS3/4A protease genotype 1b (Hepatitis C virus genotype 1b, UniProt P26663). The experiment in a line: HCV NS3/4A protease time-resolved fluorescence (TRF) assay, Ki against genotype 1b. Conditions: IC50 [gt-1b] (nM), NS3/4A genotype 1b, enzyme 0.2 nM. Type of data set: biochemical. The method in brief: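 Ki values come from IC50 fits corrected for substrate concentration and KM. The time-resolved fluorescence protease reaction used 25 nM peptide substrate, 2.5 h, room temperature, pH 7.5 HEPES buffer, after 30 min enzyme–inhibitor preincubation.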

Like-named read-outs stand apart in the source and are kept apart here.

Sequence of HCV NS3/4A protease genotype 1b (P26663 1027-1657): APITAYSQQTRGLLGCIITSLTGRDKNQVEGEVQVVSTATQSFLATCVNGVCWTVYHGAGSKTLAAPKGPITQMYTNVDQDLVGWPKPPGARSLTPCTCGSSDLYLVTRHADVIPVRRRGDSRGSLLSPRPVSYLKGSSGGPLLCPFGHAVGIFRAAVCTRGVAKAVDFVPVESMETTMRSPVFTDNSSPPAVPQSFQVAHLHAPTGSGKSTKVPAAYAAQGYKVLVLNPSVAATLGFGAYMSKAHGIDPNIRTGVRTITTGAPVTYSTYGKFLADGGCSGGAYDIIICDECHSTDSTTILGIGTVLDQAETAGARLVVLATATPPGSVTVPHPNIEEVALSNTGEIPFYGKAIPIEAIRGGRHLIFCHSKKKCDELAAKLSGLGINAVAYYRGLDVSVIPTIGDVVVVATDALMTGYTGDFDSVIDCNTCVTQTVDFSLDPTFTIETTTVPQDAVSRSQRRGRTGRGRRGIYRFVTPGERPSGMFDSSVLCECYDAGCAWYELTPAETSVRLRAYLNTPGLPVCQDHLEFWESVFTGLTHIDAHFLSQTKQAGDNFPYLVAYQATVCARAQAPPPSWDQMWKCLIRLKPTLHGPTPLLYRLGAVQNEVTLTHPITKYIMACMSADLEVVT
Sequence of HCV NS3/4A protease genotype 1b (P26663 1658-1711): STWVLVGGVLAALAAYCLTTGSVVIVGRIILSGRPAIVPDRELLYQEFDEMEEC

In data set [1] (from C=CCCCCC[C@H](NC(=O)OC(C)(C)C)C(=O)N1C[C@@]2(CCc3c(c(CO)nc4ccccc34)O2)C[C@H]1C(=O)N[C@]1(C(=O)NS(=O)(=O)C2(C)CC2)C[C@H]1C=C, Zhan's catalyst, DCE, 2.0 mM, 65.0 °C, 2.0 h), `CC(C)(C)OC(=O)N[C@H]1CCCCC/C=C\[C@@H]2C[C@@]2(C(=O)NS(=O)(=O)C2(C)CC2)NC(=O)[C@@H]2C[C@]3(CCc4c(c(CO)nc5ccccc45)O3)CN2C1=O` displayed a ring closure, yield of all isomers of 45.1%. Take `CCOC(=O)[C@@]12C[C@H]1C=CCCCCC[C@H](NC(=O)OC(C)(C)C)C(=O)N1C[C@@]3(CCc4c(c(C)nc5ccc(F)cc45)O3)C[C@H]1C(=O)N2`: in data set [1] (from C=CCCCCC[C@H](NC(=O)OC(C)(C)C)C(=O)N1C[C@@]2(CCc3c(c(C)nc4ccc(F)cc34)O2)C[C@H]1C(=O)N[C@]1(C(=O)OCC)C[C@H]1C=C, Zhan's catalyst, DCE, 2.83 mM, 75.0 °C, 4.0 h), the ring closure, yield of all isomers is 47%. `COC(=O)[C@@]12C[C@H]1/C=C\CCCCC[C@H](NC(=O)OC(C)(C)C)C(=O)N1C[C@H](O)C[C@H]1C(=O)N2` had a ring closure, isolated yield in data set [2] of 74%. Besides, the ring closure, yield of all isomers in data set [1] (from C=CCCCCC[C@H](NC(=O)OC(C)(C)C)C(=O)N1C[C@H](O)C[C@H]1C(=O)N[C@]1(C(=O)OC)C[C@H]1C=C, Grubbs-Hoveyda 1st generation catalyst, DCM, 9.85 mM, 40.0 °C, 40.0 h) is 74%. For `COc1ccc2nc(CO)c3c(c2c1Cl)CC[C@]1(C[C@H]2C(=O)N[C@]4(C(=O)NS(=O)(=O)C5(C)CC5)C[C@H]4C=CCCCCC[C@H](NC(=O)OC(C)(C)C)C(=O)N2C1)O3`, in data set [1] (from C=CCCCCC[C@H](NC(=O)OC(C)(C)C)C(=O)N1C[C@@]2(CCc3c(c(CO)nc4ccc(OC)c(Cl)c34)O2)C[C@H]1C(=O)N[C@]1(C(=O)NS(=O)(=O)C2(C)CC2)C[C@H]1C=C, Zhan's catalyst, DCE, 1.91 mM, 65.0 °C, 3.0 h), the ring closure, yield of all isomers is 25.9%. `Cc1nc2ccc(OC(F)(F)F)cc2c2c1O[C@]1(CC2)C[C@H]2C(=O)N[C@]3(C(=O)NS(=O)(=O)C4(C)CC4)C[C@H]3C=CCCCCC[C@H](NC(=O)OC(C)(C)C)C(=O)N2C1` came in with a ring closure, yield of all isomers in data set [1] (from C=CCCCCC[C@H](NC(=O)OC(C)(C)C)C(=O)N1C[C@@]2(CCc3c(c(C)nc4ccc(OC(F)(F)F)cc34)O2)C[C@H]1C(=O)N[C@]1(C(=O)NS(=O)(=O)C2(C)CC2)C[C@H]1C=C, Zhan's catalyst, DCE, 2.32 mM, 70.0 °C, 6.0 h) of 71%. Take `Cc1nc2ccccc2c2c1O[C@]1(CC2)C[C@H]2C(=O)N[C@]3(C(=O)NS(=O)(=O)C4(C)CC4)C[C@H]3C=CCCCCC[C@H](NC(=O)OC(C)(C)C)C(=O)N2C1`: in data set [1] (from C=CCCCCC[C@H](NC(=O)OC(C)(C)C)C(=O)N1C[C@@]2(CCc3c(c(C)nc4ccccc34)O2)C[C@H]1C(=O)N[C@]1(C(=O)NS(=O)(=O)C2(C)CC2)C[C@H]1C=C, Zhan's catalyst, DCE, 2.5 mM, 65.0 °C, 7.0 h), the ring closure, yield of all isomers amounted to 62.9%. As a reminder, the EC50 is the concentration needed to bring the measured effect to its halfway point. One may read the IC50 as the concentration that inhibits the measured activity by half. A higher IC50 goes with a need for much substance. Consider `COc1ccc2nc(C3CC3)c3c(c2c1)CC[C@]1(C[C@H]2C(=O)N[C@]4(C(=O)NS(=O)(=O)C5(C)CC5)C[C@H]4/C=C\CCCCC[C@H](NC(=O)OC(C)(C)C)C(=O)N2C1)O3` [Example 16, tert-Butyl (2R,6S,13aS,14aR,16aS,Z)-5′-cyclopropyl-9′-methoxy-14a-(1-methylcyclopropylsulfonylcarbamoyl)-5,16-dioxo-1′,2′,3,5,6,7,8,9,10,11,13a,14,14a,15,16, 16a-hexadecahydro-1H-spiro[cyclopropa[e]pyrrolo[1,2-a][1,4]diazacyclopentadecine-2,3′-pyrano[2,3-c]quinoline]-6-ylcarbamate], for which the ring closure, yield of all isomers in data set [1] (from C=CCCCCC[C@H](NC(=O)OC(C)(C)C)C(=O)N1C[C@@]2(CCc3c(c(C4CC4)nc4ccc(OC)cc34)O2)C[C@H]1C(=O)N[C@]1(C(=O)NS(=O)(=O)C2(C)CC2)C[C@H]1C=C, Zhan's catalyst, DCE, 2.48 mM, 75.0 °C, 4.0 h) is 82.6%. Moreover, the concentration for a half-maximal effect (EC50) in the data set on HCV genotype 1b replicon came out at 0.69 nM. Inhibition in data set [3] was half-maximal at 0.009 nM (IC50). For the compound `COCC1(S(=O)(=O)NC(=O)[C@@]23C[C@H]2/C=C\CCCCC[C@H](NC(=O)OC(C)(C)C)C(=O)N2C[C@@]4(CCc5c(c(C(F)(F)F)nc6ccc(OC)cc56)O4)C[C@H]2C(=O)N3)CC1` [Example 49, tert-Butyl ((2R,6S,13AS,14AR,16AS,Z)-9′-methoxy-14a-(((1-(methoxymethyl)cyclopropyl)sulfonyl)carbamoyl)-5,16-dioxo-5′-(trifluoromethyl)-1′,2′,3,5,6,7,8,9,10,11, 13A,14,14A,15,16,16A-hexadecahydro-1H-spiro[cyclopropa[e]pyrrolo[1,2-A][1,4]diazacyclopentadecine-2,3′-pyrano[2,3-c]quinolin]-6-yl)carbamate], the ring closure, yield of all isomers in data set [1] (from C=CCCCCC[C@H](NC(=O)OC(C)(C)C)C(=O)N1C[C@@]2(CCc3c(c(C(F)(F)F)nc4ccc(OC)cc34)O2)C[C@H]1C(=O)N[C@]1(C(=O)NS(=O)(=O)C2(COC)CC2)C[C@H]1C=C, Zhan's catalyst, DCE, 2.9 mM, 80.0 °C, 4.0 h) came to 33%. For the same compound, the EC50 in the data set with HCV genotype 1b replicon amounted to 9.13 nM. The compound also displayed an IC50 in data set [3] of 0.014 nM.

Source of the values: patent US8987195B2 (priority 2012, dated 2015).
